Laboratory results: patent US20060030562A1, “Use of an inhibitor of cathepsin-S-or-B to treat or prevent chronic obstructive pulmonary disease” (AVENTIS PHARMACEUTICALS INC., priority 2003, published 2006)
Entries after “also recorded” stand apart in the source; their conditions may differ. Peptide text beside a SMILES is read from it. * marks the point of attachment. Cbz = O=C(OCc1ccccc1)*; CH2F = FC*

Key:
Format in all cases: in vivo
[1] = test system: CC10-rtTA-IFN-γ transgene (+) mice; experiment: IFN-γ-induced lung cell apoptosis (TUNEL) in transgenic mice; conditions: for IFN-γ-induced apoptosis (TUNEL): transgene (+) mice on dox, 14150 10 mg/kg/day by gavage, CA074 10 mg/Kg/day, leupeptin 15 mg/kg I.P., vs vehicle
Description: (§1) CC10-rtTA-IFN-γ mice that had been generated in our laboratory and bred for at least 10 generations onto a Balb/c background were used in these studies. These are dual transgene positive animals in which the reverse tetracycline transactivator (rtTA) drives the expression of the murine IFN-γ gene in a lung-specific and externally regulatable fashion. The transgene in these mice is activated by adding doxycycline (dox) to the animal's drinking water. These mice were maintained as dual transgene (+) heterozygotes (refered to as transgene (+) hereafter).
(§2) CC 10-rtTA-IFN-γ mice and littermate controls were maintained on normal water until they were 4-6 weeks old.
End labeling of exposed 3′-OH ends of DNA fragments in paraffin embedded tissue was undertaken with the TUNEL in situ cell death detection kit AP (Roche Diagnostics, Calif., USA) using the instructions provided by the manufacturer. After staining, 20 fields of alveoli were randomly chosen and 2000 nuclei were counted. The labeled cells were expressed as percentage of total nuclei.

[2] = test system: CC10-rtTA-IFN-γ transgene (+) mice; experiment: IFN-γ-induced emphysema (lung volume, chord length, histology, compliance) in transgenic mice; conditions: transgene (+) mice on dox, Z-VAD-fmk 3 μg/kg/day I.P., 14150 10 mg/kg/day by gavage, CA074 10 mg/Kg/day, leupeptin 15 mg/kg I.P., vs vehicle
Description: as §1, §2
(§3) Animals were sacrificed via cervical dislocation, a median sternotomy was performed, and right heart perfusion was accomplished with calcium- and magnesium-free PBS to clear the pulmonary intravascular space. The lungs were then fixed to pressure (25 cm) with neutral buffered 10% formalin, fixed overnight in 10% formalin, embedded in paraffin, sectioned at 5 μm and stained. Hematoxylin and eosin (H&E) stains were performed in the Research Histology Laboratory of the Department of Pathology at Yale University School of Medicine.
In brief, the trachea was cannulated, the lungs were degassed and the lungs and heart were removed en bloc and inflated with PBS at 25 cm of pressure. The size of the lung was evaluated via volume displacement. Compliance was calculated as the change in volume divided by the change in pressure.

[3] = test system: CC10-rtTA-IFN-γ transgene (+) mice; experiment: Lung mRNA encoding cathepsins and MMPs (RT-PCR, real-time RT-PCR); conditions: transgene (+) mice on dox 2 weeks
[4] = test system: CC10-rtTA-IFN-γ transgene (+) mice; experiment: IFN-γ-induced BAL and tissue inflammation; conditions: transgene (+) mice on dox 2 weeks
Protocol: Mice were euthanized, the trachea was isolated by blunt dissection, and tubing was secured in the airway. Two volumes of 1 mL of PBS with 0.1% BSA were then instilled and gently aspirated and pooled. Each BAL fluid sample was centrifuged, and the supernatants were stored in −70° C. until used The levels of IFN-γ were determined using a commercial ELISA (R&D Systems Inc., Minneapolis, Minn., USA) as per the manufacturer's instructions.
as §3

SMILES	IFN-γ-induced apoptosis (TUNEL) [1]	IFN-γ-induced emphysema (lung volume, chord length, alveolar histology, compliance) [2]	IFN-γ-induced increase in mRNA encoding cathepsin B, cathepsin S and MMPs-2 and -14 [3]	MMP-9 mRNA induction [3]	decrease of the levels of IFN-γ-induced apoptosis ([1]; transgene (+) mice on dox 2 weeks, Z-VAD-fmk 3 μg/kg/day I.P. vs vehicle)	levels of mRNA encoding cathepsin H and MMPs-9 and -12 [3]	IFN-γ-induced BAL total cell, neutrophil, lymphocyte and macrophage alterations and tissue inflammation [4]	IFN-γ-induced emphysema (lung volume, chord length, alveolar histology, compliance) ([2]; listed as Z-VAD-fink)
CC[C@H](NC(=O)[C@H](CS(=O)(=O)CC(C)C)NC(=O)N1CCOCC1)C(=O)c1nc2ccccc2o1 [compound 14150]	significant decreases; also recorded: significantly inhibited	significant decreases; also recorded: significantly inhibited						
CC(=O)N[C@@H](CC(C)C)C(=O)N[C@@H](CC(C)C)C(=O)N[C@H](C=O)CCCNC(=N)N [leupeptin]			decreased	induced in am leupeptin-dependent fashion				
CCCNC(=O)[C@H]1O[C@@H]1C(=O)N[C@H](C(=O)N1CCC[C@H]1C(=O)O)[C@@H](C)CC (relative stereo) [CA074, N-(L-3-trans-propylcarbamoyl-oxirane-2-carbonyl)-L-isoleucyl-L-proline]	significant decreases	significant decreases						
COC(=O)C[C@H](NC(=O)[C@H](C)NC(=O)[C@@H](NC(=O)OCc1ccccc1)C(C)C)C(=O)CF [Z-VAD-fmk] (Cbz-Val-Ala-Asp(OMe)-CH2F)		decreased the emphysema generating effects of IFN-γ	markedly ameliorated		≥ 85%	not similarly altered	markedly ameliorated	only partially abrogated
